Assay [1] deals with T1, IRAK3 (Homo sapiens, UniProt Q9Y616).
T1 sequence (Q9Y616 1-596): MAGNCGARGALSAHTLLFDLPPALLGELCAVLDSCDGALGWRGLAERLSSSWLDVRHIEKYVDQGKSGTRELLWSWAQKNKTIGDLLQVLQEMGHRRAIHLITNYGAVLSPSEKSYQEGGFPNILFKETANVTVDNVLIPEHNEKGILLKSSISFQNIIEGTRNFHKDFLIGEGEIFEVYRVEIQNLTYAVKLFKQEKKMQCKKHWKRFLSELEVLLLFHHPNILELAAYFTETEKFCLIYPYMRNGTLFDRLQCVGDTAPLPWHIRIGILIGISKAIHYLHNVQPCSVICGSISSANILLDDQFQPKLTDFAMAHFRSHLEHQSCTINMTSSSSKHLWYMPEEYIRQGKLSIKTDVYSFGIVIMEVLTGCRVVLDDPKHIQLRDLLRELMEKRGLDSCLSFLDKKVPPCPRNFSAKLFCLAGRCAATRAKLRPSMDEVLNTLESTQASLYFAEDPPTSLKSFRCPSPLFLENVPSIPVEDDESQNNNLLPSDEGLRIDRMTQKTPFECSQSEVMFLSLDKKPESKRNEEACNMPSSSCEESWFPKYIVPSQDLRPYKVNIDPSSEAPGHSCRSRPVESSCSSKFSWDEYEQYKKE
The experiment in a line: IRAK endogenous HTRF degradation assay (Total-IRAK3 HTRF kit). On the set-up: IRAK Endogenous HTRF Degradation Assay; endogenous in cells. It is filed as cell-based. As to conditions: endogenous IRAK3, overnight incubation; % Dmax = 100 − Ymin. The protocol:
Example B2. IRAK Endogenous HTRF Degradation Assay
Cells (~50k) were plated in Cisbio 96-well low volume white plates (Cisbio: cat #66PL96005). Compounds were dissolved in DMSO and a 3-fold serial dilution was performed using a TECAN D300E. Cells were incubated with the compound overnight. Total-IRAK3 HTRF kit from Cisbio was used for degradation analysis (Cisbio: 63ADK101PEH). Cryptate and D2 antibodies were diluted in Detection buffer as per manufacturers recommendation. Then 2 μL of each solution was added to 16 μL lysate. Buffer control (lysis buffer detection buffer), Cryptate control (lysis buffer+cryptate antibody+detection buffer), and Negative control (lysis buffer+cryptate antibody+D2 antibody) were made as per manufacturers recommendation. Post incubation with antibodies the HTRF signal was measured using a Perkin Elmer Envision reader and the HTRF signal was calculated using formula: (Emission at 665 nm/Emission at 615 nm)*10,000. All HTRF values were normalized to the average value of DMSO. The average value of the DMSO control wells were set to equal 100% of the relative IRAK3 protein levels. Normalized luminescence values were plotted on a graph as a function of compound concentration. Compound concentration was plotted on the x-axis and the corresponding normalized IRAK3 protein levels on the y-axis. The EC50 value (the half-maximum effective concentration) of a compound for the degradation of the IRAK3 was calculated using a four-parameter logistic model (sigmoidal dose-response model) (FIT=(A+{(B−A)/1+[(C/x)D]})) where C is the inflection point (EC50), D is the […], and A and B are the low and high limits of the fit, respectively). The Ymin was calculated by determining the lowest percentage of target protein remaining following compound treatment. Dmax was calculated from Ymin (% Dmax=100−Ymin).
(§1) Using these assays, IC50, Dmax, EC50, and DC50 values of the following compounds were determined. Dmax is defined as the maximum percent degradation achieved and DC50 is the concentration at which 50% degradation is achieved.
Background: Time-resolved FRET reads energy transfer from a long-lived donor to a nearby acceptor.

The target of assay [2] is T1, IRAK3. The experiment in a line: IRAK3 biochemical binding assay (LanthaScreen Eu Kinase Binding, TR-FRET). As to conditions: 10 nM tracer, 10 nM IRAK3, 1 hour at room temperature. On the procedure:
Example B3. IRAK3 Biochemical Binding Assay
The LanthaScreen® Eu Kinase Binding assay was performed as described by the vendor (ThermoFisher Scientific Waltham, MA). Briefly, 100× solutions of compound were prepared in DMSO via serial dilution of the 10 mM stock solution in a 384-well reagent plate using 3-fold intervals to achieve final concentrations. 1 μL of the compound dilution series were added to the corresponding wells of a 384-well reagent plate containing 32.3 μL of 1× buffer (50 mM HEPES pH 7.4, […], 1 mM EGTA, 0.01% Brij-35). 5 μL of the buffer diluted compounds were transferred to the corresponding wells of a 384-well assay plate. 5 μL of 3× tracer was transferred to each well of the assay plate for a final tracer concentration of 10 nM. Finally, 5 μL of the 3× Eu-Anti-GST and IRAK3 mix was transferred to each well for a final concentration of 2 nM and 10 nM, respectively. Reactions were allowed to incubate for 1 hour at room temperature. TR-FRET signal of the interaction ([…]/λem 665/λem 615) was read at room temperature with a delay time of 100 μs and an integration time of 200 μs using an Envision plate reader. Background corrected emission signal ratios at each compound concentration were used to calculate percentage of inhibition (% o Inhibition). Plots of % Inhibition versus inhibitor concentrations were fit according to a dose-response equation (Eq. 1) to generate IC50 and Hill slope values using Dotmatics software (Dotmatics, Bishops Storford, Hertfordshire, England).
as §1

For orientation: Dmax means the largest share of the target that was removed. A higher Dmax goes with deep degradation. The term IC50 denotes the concentration needed to halve the response being measured. High values mean weaker potency in that assay, low ones greater potency in that assay. In the case of `C[C@@H](Oc1cc(-c2cnn(C3CCN(C4CCC5(CC4)CCN(C(=O)c4ccc6c(c4)CN(C4CCC(=O)NC4=O)C6=O)CC5)CC3)c2)cnc1N)c1c(Cl)ccc(F)c1Cl` (stereo partly drawn) [Compound 20, 3-(5-(9-(4-(4-(6-amino-5-((R)-1-(2,6-dichloro-3-fluorophenyl)ethoxy)pyridin-3-yl)-1H-pyrazol-1-yl)piperidin-1-yl)-3-azaspiro[5.5]undecane-3-carbonyl)-1-oxoisoindolin-2-yl)piperidine-2,6-dione], the Dmax in assay [1] is 73%. In assay [2], this compound showed an IC50 of 10 nM.
On the same counts, the results for `C[C@@H](Oc1cc(-c2cnn(C3CCN(C4CCC5(CC4)CCN(C(=O)c4cccc6c4CN(C4CCC(=O)NC4=O)C6=O)CC5)CC3)c2)cnc1N)c1c(Cl)ccc(F)c1Cl` (stereo partly drawn) [Compound 21, 3-(4-(9-(4-(4-(6-amino-5-((R)-1-(2,6-dichloro-3-fluorophenyl)ethoxy)pyridin-3-yl)-1H-pyrazol-1-yl)piperidin-1-yl)-3-azaspiro[5.5]undecane-3-carbonyl)-1-oxoisoindolin-2-yl)piperidine-2,6-dione] are 68% and 2 nM.
On the same counts, the results for `C[C@@H](Oc1cc(-c2cnn(C3CCN(CCOCCOCCNC(=O)COc4ccc5c(c4)C(=O)N(C4CCC(=O)NC4=O)C5=O)CC3)c2)cnc1N)c1c(Cl)ccc(F)c1Cl` (stereo partly drawn) [Compound 15, N-(2-(2-(2-(4-(4-(6-amino-5-((R)-1-(2,6-dichloro-3-fluorophenyl)ethoxy)pyridin-3-yl)-1H-pyrazol-1-yl)piperidin-1-yl)ethoxy)ethoxy)ethyl)-2-((2-(2,6-dioxopiperidin-3-yl)-1,3-dioxoisoindolin-5-yl)oxy)acetamide] are 20% and 64 nM.
For `C[C@@H](Oc1cc(-c2cnn(C3CCN(CCOCCNC(=O)COc4cccc5c4C(=O)N(C4CCC(=O)NC4=O)C5=O)CC3)c2)cnc1N)c1c(Cl)ccc(F)c1Cl` (stereo partly drawn) [Compound 9, N-(2-(2-(4-(4-(6-amino-5-((R)-1-(2,6-dichloro-3-fluorophenyl)ethoxy)pyridin-3-yl)-1H-pyrazol-1-yl)piperidin-1-yl)ethoxy)ethyl)-2-((2-(2,6-dioxopiperidin-3-yl)-1,3-dioxoisoindolin-4-yl)oxy)acetamide], the Dmax in assay [1] amounted to 23%. In assay [2], the IC50 came out at 45 nM.
In assay [1], `C[C@@H](Oc1cc(-c2cnn(C3CCN(CCOCCOCCOCCNC(=O)COc4cccc5c4C(=O)N(C4CCC(=O)NC4=O)C5=O)CC3)c2)cnc1N)c1c(Cl)ccc(F)c1Cl` (stereo partly drawn) [Compound 11, N-(2-(2-(2-(2-(4-(4-(6-amino-5-((R)-1-(2,6-dichloro-3-fluorophenyl)ethoxy)pyridin-3-yl)-1H-pyrazol-1-yl)piperidin-1-yl)ethoxy)ethoxy)ethoxy)ethyl)-2-((2-(2,6-dioxopiperidin-3-yl)-1,3-dioxoisoindolin-4-yl)oxy)acetamide] showed a Dmax of 38%. In assay [2], this compound gave an IC50 of 95 nM.
On the same counts, the results for `C[C@@H](Oc1cc(-c2cnn(C3CCN(C4CCC5(CC4)CCN(C(=O)c4ccc6c(c4)C(=O)N(C4CCC(=O)NC4=O)C6)CC5)CC3)c2)cnc1N)c1c(Cl)ccc(F)c1Cl` (stereo partly drawn) [Compound 19, 3-(6-(9-(4-(4-(6-amino-5-((R)-1-(2,6-dichloro-3-fluorophenyl)ethoxy)pyridin-3-yl)-1H-pyrazol-1-yl)piperidin-1-yl)-3-azaspiro[5.5]undecane-3-carbonyl)-1-oxoisoindolin-2-yl)piperidine-2,6-dione] are 42% and 4 nM.
On the same counts, the results for `C[C@@H](Oc1cc(-c2cnn(C3CCN(C4CCC5(CC4)CCN(C(=O)c4cccc(NC6CCC(=O)NC6=O)c4)CC5)CC3)c2)cnc1N)c1c(Cl)ccc(F)c1Cl` (stereo partly drawn) [Compound 22, 3-((3-(9-(4-(4-(6-Amino-5-((R)-1-(2,6-dichloro-3-fluorophenyl)ethoxy)pyridin-3-yl)-1H-pyrazol-1-yl)piperidin-1-yl)-3-azaspiro[5.5]undecane-3-carbonyl)phenyl)amino)piperidine-2,6-dione] are 81% and 5 nM.
With `C[C@@H](Oc1cc(-c2cnn(C3CCN(CCOCCOCCOCCOCCNC(=O)COc4cccc5c4C(=O)N(C4CCC(=O)NC4=O)C5=O)CC3)c2)cnc1N)c1c(Cl)ccc(F)c1Cl` (stereo partly drawn) [Compound 12, N-(14-(4-(4-(6-amino-5-((R)-1-(2,6-dichloro-3-fluorophenyl)ethoxy)pyridin-3-yl)-1H-pyrazol-1-yl)piperidin-1-yl)-3,6,9,12-tetraoxatetradecyl)-2-((2-(2,6-dioxopiperidin-3-yl)-1,3-dioxoisoindolin-4-yl)oxy)acetamide], in assay [1], the Dmax is 33%. Moreover, the IC50 in assay [2] was 56 nM.
On the same counts, the results for `C[C@@H](Oc1cc(-c2cnn(C3CCN(CCOCCOCCNC(=O)COc4cccc5c4C(=O)N(C4CCC(=O)NC4=O)C5=O)CC3)c2)cnc1N)c1c(Cl)ccc(F)c1Cl` (stereo partly drawn) [Compound 10, N-(2-(2-(2-(4-(4-(6-amino-5-((R)-1-(2,6-dichloro-3-fluorophenyl)ethoxy)pyridin-3-yl)-1H-pyrazol-1-yl)piperidin-1-yl)ethoxy)ethoxy)ethyl)-2-((2-(2,6-dioxopiperidin-3-yl)-1,3-dioxoisoindolin-4-yl)oxy)acetamide] are 37% and 27 nM.
On the same counts, the results for `C[C@@H](Oc1cc(-c2cnn(C3CCN(CCOCCOCCOCCOCCNC(=O)COc4ccc5c(c4)C(=O)N(C4CCC(=O)NC4=O)C5=O)CC3)c2)cnc1N)c1c(Cl)ccc(F)c1Cl` (stereo partly drawn) [Compound 17, N-(14-(4-(4-(6-amino-5-((R)-1-(2,6-dichloro-3-fluorophenyl)ethoxy)pyridin-3-yl)-1H-pyrazol-1-yl)piperidin-1-yl)-3,6,9,12-tetraoxatetradecyl)-2-((2-(2,6-dioxopiperidin-3-yl)-1,3-dioxoisoindolin-5-yl)oxy)acetamide] are 32% and 100 nM.
On the same counts, the results for `Cc1ncsc1-c1ccc(CNC(=O)[C@@H]2C[C@@H](O)CN2C(=O)[C@@H](NC(=O)COCCOCCOCCOCCOCCOCCN2CCC(n3cc(-c4cnc(N)c(O[C@H](C)c5c(Cl)ccc(F)c5Cl)c4)cn3)CC2)C(C)(C)C)cc1` [Compound 6, (2S,4R)-1-((S)-23-(4-(4-(6-amino-5-((R)-1-(2,6-dichloro-3-fluorophenyl)ethoxy)pyridin-3-yl)-1H-pyrazol-1-yl)piperidin-1-yl)-2-(tert-butyl)-4-oxo-6,9,12,15,18,21-hexaoxa-3-azatricosanoyl)-4-hydroxy-N-(4-(4-methylthiazol-5-yl)benzyl)pyrrolidine-2-carboxamide] are 56% and 108 nM.
